Data taken from patent publication US20250222120A1, “SYNTHESIS OF NOVEL SMALL MOLECULE CARM1 DEGRADERS, COMPOUNDS FORMED THEREBY, AND PHARMACEUTICAL COMPOSITIONS CONTAINING THEM” (Wisconsin Alumni Research Foundation, priority 2024, published 2025).

Key:
MDA-MB-231 cells = experiment: Transwell migration assay, MDA-MB-231 cells; type: cell-based
Experimental: Transwell Migration Assay. Cells were harvested and washed in serum-free DMEM. The wells of a 24-well plate were filled with 800 μL of DMEM with 10% FBS. Transwell inserts with […] pore size were then added to the wells with DMEM. Cells were resuspended in serum-free DMEM, then 1×10^5 cells in 200 μL were added to the upper chambers. Drug treatments were added to the lower chambers, then incubated for 20 h at 37° C. The cells on the upper surface were removed with cotton swabs. Migratory cells were fixed in 3.7% formaldehyde at room temperature, followed by 100% methanol at −20° C. Fixed cells were stained with 1% crystal violet in 20% methanol for 30 min. The migration area was quantified from five independent fields of view of the lower surface of the membrane under a microscope.

CARM1 = target: T1, CARM1 (Homo sapiens, UniProt Q86X55); experiment: Global proteomics of MCF7 cells, CARM1 level; type: cell-based; design: we performed a global quantitative proteomic analysis of MCF7 cells using mass spectrometry; endogenous in cells; host or cells: MCF7; settings: 25 nM, 4 h, versus DMSO
T1 sequence (Q86X55 1-608): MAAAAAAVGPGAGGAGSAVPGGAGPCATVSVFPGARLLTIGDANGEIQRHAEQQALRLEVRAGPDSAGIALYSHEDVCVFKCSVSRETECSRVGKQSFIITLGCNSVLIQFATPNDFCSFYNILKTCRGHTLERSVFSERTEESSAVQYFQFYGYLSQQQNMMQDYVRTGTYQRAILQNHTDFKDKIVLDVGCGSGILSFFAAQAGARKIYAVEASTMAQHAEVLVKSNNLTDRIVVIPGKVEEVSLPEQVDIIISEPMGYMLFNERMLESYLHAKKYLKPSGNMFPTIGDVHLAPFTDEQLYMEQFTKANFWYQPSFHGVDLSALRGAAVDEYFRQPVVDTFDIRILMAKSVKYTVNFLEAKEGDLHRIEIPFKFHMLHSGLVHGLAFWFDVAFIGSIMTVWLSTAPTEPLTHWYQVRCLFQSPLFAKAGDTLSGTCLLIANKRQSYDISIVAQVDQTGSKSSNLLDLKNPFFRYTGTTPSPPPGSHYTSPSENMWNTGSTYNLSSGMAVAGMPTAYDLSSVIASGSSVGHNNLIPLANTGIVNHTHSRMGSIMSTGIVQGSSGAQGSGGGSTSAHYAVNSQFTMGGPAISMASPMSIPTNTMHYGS
Experimental: Sample preparation for global proteomics analysis. Sample preparation is similar to the previous report (Ma et al. “Strategy Based on Deglycosylation, Multiprotease, and Hydrophilic Interaction Chromatography for Large-Scale Profiling of Protein Methylation” Anal. Chem. 2017, 89 (23), 12909-12917). Briefly, treated MCF7 cells were harvested by washing with PBS buffer (Gibco, pH 7.4) and lysed in RIPA buffer supplemented with protease inhibitors for 20 min, then protein concentration was determined using a BCA Protein Assay Kit (Thermo Pierce, Rockford, IL) per manufacturer instructions. […] The concentrations of the peptide mixture were measured by peptide assay (Thermo Fisher Scientific). […]
LC-MS/MS data acquisition. Samples were analyzed on an Orbitrap Fusion Lumos Tribrid mass spectrometer (Thermo Fisher Scientific) coupled to a Dionex UltiMate 3000 UPLC system. […]
Data analysis. Protein identification and quantification by MaxQuant (version 1.5.3.8) based database searching, using the integrated Andromeda search engine with FDR <1% at peptide and protein levels. […] For label-free protein quantification (LFQ), the MaxQuant LFQ algorithm was used to quantitate the MS signals, and the proteins' intensities were represented in LFQintesnit (Schaab et al. “Analysis of High Accuracy, Quantitative Proteomics Data in the MaxQB Database” Mol. Cell. Proteomics 2012, 11 (3), M111.014068). […]

CNCCN1CCC(c2cc(CN(C)C(=O)c3cccc(Oc4ccc(OCC(=O)N5CCC(CN6CCC(CN7CCN(CC(=O)N[C@H](C(=O)N8C[C@H](O)C[C@H]8C(=O)N[C@@H](C)c8ccc(-c9scnc9C)cc8)C(C)(C)C)CC7)CC6)CC5)cc4)c3)ccn2)CC1 [Compound 3b, (2S,4R)-1-((S)-3,3-dimethyl-2-(2-(4-((1-((1-(2-(4-(3-(methyl((2-(1-(2-(methylamino)ethyl)piperidin-4-yl)pyridin-4-yl)methyl)carbamoyl)phenoxy)phenoxy)acetyl)piperidin-4-yl)methyl)piperidin-4-yl)methyl)piperazin-1-yl)acetamido)butanoyl)-4-hydroxy-N—((S)-1-(4-(4-methylthiazol-5-yl)phenyl)ethyl)pyrrolidine-2-carboxamide]
Dose lower than the corresponding inhibitor for the same anti-migratory effects (MDA-MB-231 cells; 0.5 μM 3b versus 10 μM TP-064): 20 fold
Cell migration (MDA-MB-231 cells; 0.5 μM, transwell, 20 h): inhibited cell migration at a similar level
CARM1 protein level in proteomics (CARM1): significant downregulation
